Literature values in PMC7791840, “The R-enantiomer of ketorolac reduces ovarian cancer tumor burden in vivo” (BMC Cancer, 2021).
pIC50: −log10 of the molar value.

Tests used:
[1] = test system: HEY8 ovarian cancer xenografts; design: method as in PMID 25595279; details: cited from earlier work
[2] = design: method as in PMID 8809637; details: mice; cited from earlier work
Cdc42 = test system: Cdc42; design: method as in earlier work; details: cell-based assays, ovarian tumor cells; ref 23 (R-ketorolac), 27 (S-ketorolac); cited from earlier work
Rac1 = test system: Rac1; design: method as in earlier work; details: cell-based assays, ovarian tumor cells; ref 23 (R-ketorolac), 27 (S-ketorolac); cited from earlier work
COX-1 = test system: COX-1; design: method as in PMID 26558612, PMID 10027870; details: cited from earlier work
COX-2 = test system: COX-2; design: method as in PMID 26558612, PMID 10027870; details: cited from earlier work

SMILES | Number of tumor nodules [1] | Tumor weight [1] | Conversion of S-enantiomer to R-enantiomer [2] | pIC50 (Cdc42) | pIC50 (Rac1) | pIC50 (COX-1) | pIC50 (COX-2)
O=P(O)(O)C(O)(Cn1ccnc1)P(=O)(O)O [zoledronic acid, Zoledronic acid] | decreased | decreased |  |  |  |  | 
O=C(c1ccccc1)c1ccc2n1CC[C@@H]2C(=O)O [S-ketorolac] |  |  | significantly converted to the R-enantiomer in mice | < 4.00 | < 4.00 | 6.34 | 5.84
